Reference: ChEMBL document CHEMBL5584348, “Exploring Degradation of Intrinsically Disordered Protein Yes-Associated Protein Induced by Proteolysis TArgeting Chimeras” (J Med Chem, 2024)
One block for each molecule: values may come before it. Active and inactive are the calls of the source. The rule behind the calls is not given here.

Assays:
NCI-H226 [1] = experiment: Antiproliferative activity against human NCI-H226 cells assessed as cell killing upto 3.13 uM incubated for 4 days by CCK-8 assay; assay type: functional, cell-based; details: time 4.0 day
[2] = target: T1, Protein cereblon/Transcriptional coactivator YAP1 (Homo sapiens) (UniProt P46937+Q96SW2); experiment: PROTAC activity at YAP/CRBN in human NCI-H226 cells assessed as induction of YAP degradation 10 uM incubated for 48 hrs by Western blot analysis; assay type: cell-based
T1 sequence (P46937 whole entry, looked up): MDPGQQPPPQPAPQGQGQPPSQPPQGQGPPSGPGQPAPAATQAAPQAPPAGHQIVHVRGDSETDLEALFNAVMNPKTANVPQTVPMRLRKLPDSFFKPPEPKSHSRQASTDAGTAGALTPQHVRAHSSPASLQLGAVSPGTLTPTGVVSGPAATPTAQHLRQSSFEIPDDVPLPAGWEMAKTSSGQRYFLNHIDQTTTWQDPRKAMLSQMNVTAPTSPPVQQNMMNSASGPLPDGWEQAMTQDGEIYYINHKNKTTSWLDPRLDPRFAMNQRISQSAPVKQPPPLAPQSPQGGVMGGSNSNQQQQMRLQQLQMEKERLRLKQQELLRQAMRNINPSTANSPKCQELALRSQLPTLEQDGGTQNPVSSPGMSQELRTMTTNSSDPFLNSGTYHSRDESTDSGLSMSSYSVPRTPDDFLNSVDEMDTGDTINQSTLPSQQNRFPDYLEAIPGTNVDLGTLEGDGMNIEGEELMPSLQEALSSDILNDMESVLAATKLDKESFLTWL
T1 sequence (Q96SW2 whole entry, looked up): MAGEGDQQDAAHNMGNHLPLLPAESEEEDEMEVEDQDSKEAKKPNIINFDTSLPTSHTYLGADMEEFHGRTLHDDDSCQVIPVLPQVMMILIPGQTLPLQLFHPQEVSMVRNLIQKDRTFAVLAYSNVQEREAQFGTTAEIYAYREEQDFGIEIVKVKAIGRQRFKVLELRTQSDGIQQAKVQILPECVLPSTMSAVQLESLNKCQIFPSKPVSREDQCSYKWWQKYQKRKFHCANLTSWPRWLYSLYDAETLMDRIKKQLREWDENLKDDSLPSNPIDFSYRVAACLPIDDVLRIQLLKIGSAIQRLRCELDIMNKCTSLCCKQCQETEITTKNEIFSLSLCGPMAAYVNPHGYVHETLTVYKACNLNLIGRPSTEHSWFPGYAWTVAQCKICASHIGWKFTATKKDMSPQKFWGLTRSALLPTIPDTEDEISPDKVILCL

[3] = target: T2, von Hippel-Lindau disease tumor suppressor/Transcriptional coactivator YAP1 (Homo sapiens, UniProt P40337+P46937); experiment: PROTAC activity at YAP/VHL in human NCI-H226 cells assessed as induction of YAP degradation 10 uM incubated for 48 hrs by Western blot analysis; assay type: cell-based
Target sequence in this assay (P40337 whole entry, looked up): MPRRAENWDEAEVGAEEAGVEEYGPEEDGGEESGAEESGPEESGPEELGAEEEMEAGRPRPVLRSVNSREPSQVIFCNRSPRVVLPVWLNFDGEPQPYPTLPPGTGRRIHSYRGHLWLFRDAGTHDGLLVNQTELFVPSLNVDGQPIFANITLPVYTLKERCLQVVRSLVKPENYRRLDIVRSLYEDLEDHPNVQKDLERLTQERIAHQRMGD
Target sequence in this assay (P46937 whole entry, looked up): as the sequence (P46937 whole entry, looked up) above

NCI-H226 [4] = experiment: Antiproliferative activity against human NCI-H226 cells assessed as cell killing at 10 uM incubated for 3 days by CCK-8 assay; assay type: functional, cell-based; details: time 3.0 day
[5] = target: T1, Protein cereblon/Transcriptional coactivator YAP1 (Homo sapiens); experiment: PROTAC activity at YAP/CRBN in human NCI-H226 cells assessed as induction of YAP degradation at 10 uM incubated for 48 hrs by Western blot analysis; assay type: cell-based
NCI-H226 [6] = experiment: Antiproliferative activity against human NCI-H226 cells assessed as cell growth inhibition incubated for 3 days by CCK-8 assay; assay type: functional, cell-based; details: time 3.0 day
[7] = target: T2, von Hippel-Lindau disease tumor suppressor/Transcriptional coactivator YAP1; experiment: PROTAC activity at YAP/VHL in human NCI-H226 cells assessed as induction of YAP degradation incubated for 48 hrs by Western blot analysis; assay type: cell-based
Target sequence in this assay (P40337 whole entry): as the sequence (P40337 whole entry, looked up) above
Target sequence in this assay (P46937 whole entry): as the sequence (P46937 whole entry, looked up) above

[8] = target: T2, von Hippel-Lindau disease tumor suppressor/Transcriptional coactivator YAP1; experiment: PROTAC activity at YAP/VHL in human NCI-H226 cells assessed as reduction in CTGF expression incubated for 48 hrs by Western blot analysis; assay type: cell-based; details: dose 2.5-20 µM
Target sequence in this assay (P40337 whole entry, looked up): as the sequence (P40337 whole entry, looked up) above
Target sequence in this assay (P46937 whole entry, looked up): as the sequence (P46937 whole entry, looked up) above

NCI-H226 [9] = experiment: Antiproliferative activity against human NCI-H226 cells assessed as cell killing at 12.5 uM incubated for 3 days by CCK-8 assay; assay type: functional, cell-based; details: time 3.0 day
[10] = target: T1, Protein cereblon/Transcriptional coactivator YAP1 (Homo sapiens); experiment: PROTAC activity at YAP/CRBN in human NCI-H226 cells assessed as effect on YAP level at 10 uM incubated for 48 hrs by Western blot analysis; assay type: cell-based
[11] = target: Transcriptional enhancer factor TEF-1 (Homo sapiens) (UniProt P28347); experiment: Inhibition of TEAD transcriptional activity in human HEK293T cells incubated for 24 hrs by luciferase reporter assay; assay type: cell-based
Sequence of Transcriptional enhancer factor TEF-1 (Homo sapiens) (P28347 whole entry): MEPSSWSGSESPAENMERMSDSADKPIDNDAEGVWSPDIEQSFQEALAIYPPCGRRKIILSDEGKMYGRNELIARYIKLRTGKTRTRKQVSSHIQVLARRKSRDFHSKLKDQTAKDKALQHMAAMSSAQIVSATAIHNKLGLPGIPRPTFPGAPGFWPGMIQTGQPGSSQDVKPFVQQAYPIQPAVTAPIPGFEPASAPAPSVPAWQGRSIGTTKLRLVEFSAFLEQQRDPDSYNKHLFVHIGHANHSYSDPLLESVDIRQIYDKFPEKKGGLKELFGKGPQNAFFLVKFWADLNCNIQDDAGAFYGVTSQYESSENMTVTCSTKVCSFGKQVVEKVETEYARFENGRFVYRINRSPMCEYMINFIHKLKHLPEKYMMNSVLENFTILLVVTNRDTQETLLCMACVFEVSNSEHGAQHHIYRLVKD

[12] = target: Transcriptional coactivator YAP1 (Homo sapiens) (UniProt P46937); experiment: Induction of YAP degradation in human NCI-H290 cells at 5 uM relative to control; assay type: cell-based
Sequence of Transcriptional coactivator YAP1 (Homo sapiens) (P46937 whole entry): as the sequence (P46937 whole entry, looked up) above

[13] = target: T2, von Hippel-Lindau disease tumor suppressor/Transcriptional coactivator YAP1; experiment: PROTAC activity at YAP/VHL in human NCI-H226 cells assessed as induction of YAP degradation at 10 uM incubated for 48 hrs by Western blot analysis; assay type: cell-based
Target sequence in this assay (P40337 whole entry, looked up): as the sequence (P40337 whole entry, looked up) above
Target sequence in this assay (P46937 whole entry, looked up): as the sequence (P46937 whole entry, looked up) above

Huh-7 [14] = experiment: Antitumor activity against human Huh-7 cells xenografted in immunodeficient male NSG mouse assessed as tumor growth inhibition at 100 mg/kg, po administered every 3 days for 24 days; assay type: functional; details: Huh-7, 576 h, time 24 day, read-out: TGI
[15] = target: T2, von Hippel-Lindau disease tumor suppressor/Transcriptional coactivator YAP1; experiment: PROTAC activity at YAP/VHL in human NCI-H226 cells assessed as effect on YAP level at 10 uM incubated for 48 hrs by Western blot analysis; assay type: cell-based
Target sequence in this assay (P40337 whole entry, looked up): as the sequence (P40337 whole entry, looked up) above
Target sequence in this assay (P46937 whole entry, looked up): as the sequence (P46937 whole entry, looked up) above

NCI-H226 [16] = experiment: Antiproliferative activity against NF2 deficient- human NCI-H226 cells assessed as cell growth inhibition incubated for 4 days by CCK-8 assay; assay type: functional, cell-based; details: NCI-H226, 96 h
NCI-H226 [17] = experiment: Antiproliferative activity against NF2 deficient- human NCI-H226 cells assessed as maximum cell growth inhibition incubated for 4 days by CCK-8 assay relative to control; assay type: functional; details: time 4 day
Huh-7 [18] = experiment: Antiproliferative activity against human Huh-7 cells overexpressing YAP assessed as cell growth inhibition incubated for 4 days by CCK-8 assay; assay type: functional, cell-based; details: Huh-7, 96 h
[19] = target: T2, von Hippel-Lindau disease tumor suppressor/Transcriptional coactivator YAP1; experiment: PROTAC activity at YAP/VHL in human NCI-H226 cells assessed as reduction in YAP level at 10 uM incubated for 48 hrs by Western blot analysis; assay type: cell-based
Target sequence in this assay (P40337 whole entry, looked up): as the sequence (P40337 whole entry, looked up) above
Target sequence in this assay (P46937 whole entry, looked up): as the sequence (P46937 whole entry, looked up) above

Activity [2]: inactive
Compound: COc1ccc(-c2cc(-c3ccc(OCC(=O)NCCOCCOCCOCCNc4cccc5c4C(=O)N(C4CCC(=O)NC4=O)C5=O)cc3)nc3c2CC(=O)Nc2ccccc2-3)cc1OC (configuration not stated)
Activity (NCI-H226 [1]): inactive

Activity [3]: inactive
Compound: COc1ccc(-c2cc(-c3ccc(OCCCCCC(=O)N[C@H](C(=O)N4C[C@H](O)C[C@H]4C(=O)N[C@@H](C)c4ccc(-c5scnc5C)cc4)C(C)(C)C)cc3)nc3c2CC(=O)Nc2ccccc2-3)cc1OC
Activity (NCI-H226 [1]): inactive

Activity [3]: inactive
Compound: COc1ccc(-c2cc(-c3ccc(OCCCCCCCC(=O)N[C@H](C(=O)N4C[C@H](O)C[C@H]4C(=O)N[C@@H](C)c4ccc(-c5scnc5C)cc4)C(C)(C)C)cc3)nc3c2CC(=O)Nc2ccccc2-3)cc1OC
Activity (NCI-H226 [1]): inactive

Activity [5]: inactive
Compound: COc1ccc(-c2cc(-c3ccccc3)nc3c2CC(=O)Nc2ccccc2-3)cc1OCC(=O)NCCOCCNc1cccc2c1C(=O)N(C1CCC(=O)NC1=O)C2=O (configuration not stated)
Activity (NCI-H226 [4]): inactive
Activity (NCI-H226 [6]): Active

Activity [2]: inactive
Compound: COc1ccc(-c2cc(-c3ccc(OCC(=O)NCCOCCNc4cccc5c4C(=O)N(C4CCC(=O)NC4=O)C5=O)cc3)nc3c2CC(=O)Nc2ccccc2-3)cc1OC (configuration not stated)
Activity (NCI-H226 [1]): inactive

DC50 [7]: 14.9 µM
Activity [8]: Dose-Dependent Effect
Compound: COc1cc(-c2cc(-c3ccccc3)nc3c2CC(=O)Nc2ccccc2-3)ccc1OCCOCC(=O)N[C@H](C(=O)N1C[C@H](O)C[C@H]1C(=O)N[C@@H](C)c1ccc(-c2scnc2C)cc1)C(C)(C)C
Activity (NCI-H226 [4]): inactive

Activity [10]: inactive
Compound: COc1cc(-c2cc(-c3ccccc3)nc3c2CC(=O)Nc2ccccc2-3)ccc1OCC(=O)NCCOCCOCCOCCNc1cccc2c1C(=O)N(C1CCC(=O)NC1=O)C2=O (configuration not stated)
Activity (NCI-H226 [9]): inactive

TEAD transcriptional inhibition (active/inactive call) [11]: Active
Compound: COc1ccc(-c2cc(-c3ccccc3)nc3c2CC(=O)Nc2ccccc2-3)cc1OCCOC(C)=O

Activity [5]: inactive
Compound: COc1ccc(-c2cc(-c3ccccc3)nc3c2CC(=O)Nc2ccccc2-3)cc1OCC(=O)NCCOCCOCCNc1cccc2c1C(=O)N(C1CCC(=O)NC1=O)C2=O (configuration not stated)
Activity (NCI-H226 [4]): inactive
Activity (NCI-H226 [6]): Active

Compound: COc1cc(-c2cc(-c3ccccc3)nc3c2CC(=O)Nc2ccccc2-3)ccc1OCCOCCC(=O)N[C@H](C(=O)N1C[C@H](O)C[C@H]1C(=O)N[C@@H](C)c1ccc(-c2scnc2C)cc1)C(C)(C)C
Activity (NCI-H226 [4]): inactive

TEAD transcriptional inhibition (active/inactive call) [11]: Active
Compound: COc1cc(-c2cc(-c3ccccc3)nc3c2CC(=O)Nc2ccccc2-3)ccc1O

Compound: COc1cc(-c2cc(-c3ccccc3)nc3c2CC(=O)Nc2ccccc2-3)ccc1OCCCCCCCC(=O)N[C@H](C(=O)N1C[C@H](O)C[C@H]1C(=O)N[C@@H](C)c1ccc(-c2scnc2C)cc1)C(C)(C)C
Activity (NCI-H226 [4]): inactive

Activity [3]: inactive
Compound: COc1ccc(-c2cc(-c3ccc(OCCOCCOCCC(=O)N[C@H](C(=O)N4C[C@H](O)C[C@H]4C(=O)N[C@@H](C)c4ccc(-c5scnc5C)cc4)C(C)(C)C)cc3)nc3c2CC(=O)Nc2ccccc2-3)cc1OC
Activity (NCI-H226 [1]): inactive

Activity [12]: < 50%
Compound: CN[C@@H](C)C(=O)N[C@H](C(=O)N1CCC[C@H]1c1nc(C(=O)c2cccc(OCCOCCNC(=O)[C@]34CC[C@@H](C(C)=O)[C@@H]3[C@H]3CC[C@@H]5[C@@]6(C)CC[C@H](O)C(C)(C)[C@@H]6CC[C@@]5(C)[C@]3(C)CC4)c2)cs1)C1CCCCC1

Activity [3]: inactive
Compound: COc1ccc(-c2cc(-c3ccc(OCCCCCCCCCC(=O)N[C@H](C(=O)N4C[C@H](O)C[C@H]4C(=O)N[C@@H](C)c4ccc(-c5scnc5C)cc4)C(C)(C)C)cc3)nc3c2CC(=O)Nc2ccccc2-3)cc1OC
Activity (NCI-H226 [1]): inactive

Activity [2]: inactive
Compound: COc1ccc(-c2cc(-c3ccc(OCC(=O)NCCOCCOCCNc4cccc5c4C(=O)N(C4CCC(=O)NC4=O)C5=O)cc3)nc3c2CC(=O)Nc2ccccc2-3)cc1OC (configuration not stated)
Activity (NCI-H226 [1]): inactive

Activity [5]: inactive
Compound: COc1ccc(-c2cc(-c3ccccc3)nc3c2CC(=O)Nc2ccccc2-3)cc1OCC(=O)NCCOCCOCCOCCNc1cccc2c1C(=O)N(C1CCC(=O)NC1=O)C2=O (configuration not stated)
Activity (NCI-H226 [4]): inactive
Activity (NCI-H226 [6]): Active

Compound: COc1cc(-c2cc(-c3ccccc3)nc3c2CC(=O)Nc2ccccc2-3)ccc1OCC(=O)NCCOCCOCCNc1cccc2c1C(=O)N(C1CCC(=O)NC1=O)C2=O (configuration not stated)
Activity (NCI-H226 [4]): inactive

TEAD transcriptional inhibition (active/inactive call) [11]: Active
Compound: COc1ccc(-c2cc(-c3ccccc3)nc3c2CC(=O)Nc2ccccc2-3)cc1O

Activity [13]: inactive
Compound: COc1ccc(-c2cc(-c3ccccc3)nc3c2CC(=O)Nc2ccccc2-3)cc1OCCOCCOCCC(=O)N[C@H](C(=O)N1C[C@H](O)C[C@H]1C(=O)N[C@@H](C)c1ccc(-c2scnc2C)cc1)C(C)(C)C
Activity (NCI-H226 [4]): inactive
Activity (NCI-H226 [6]): Active

TEAD transcriptional inhibition (active/inactive call) [11]: Active
Compound: CC(=O)c1ccc(OCc2ccccc2)cc1

Compound: CNC(=O)c1cc(Oc2ccc(NC(=O)Nc3ccc(Cl)c(C(F)(F)F)c3)cc2)ccn1 [SORAFENIB]
inhibition in vivo at 100 mg/kg (Huh-7 [14]): 76%

TEAD transcriptional inhibition (active/inactive call) [11]: Active
Compound: COc1ccc(-c2cc(-c3ccccc3)nc3c2CC(=O)Nc2ccccc2-3)cc1OCc1ccccc1

Activity [15]: inactive
Compound: COc1cc(-c2cc(-c3ccccc3)nc3c2CC(=O)Nc2ccccc2-3)ccc1OCCCCCCCCCC(=O)N[C@H](C(=O)N1C[C@H](O)C[C@H]1C(=O)N[C@@H](C)c1ccc(-c2scnc2C)cc1)C(C)(C)C
Activity (NCI-H226 [9]): inactive

IC50 (NCI-H226 [16]): 3.9 µM
IC50 (Huh-7 [18]): 69 µM
Compound: COc1ccc(-c2cc(-c3ccccc3)nc3c2CC(=O)Nc2ccccc2-3)cc1OC
inhibition (INH) (NCI-H226 [17]): 95%

Activity [13]: inactive
Compound: COc1ccc(-c2cc(-c3ccccc3)nc3c2CC(=O)Nc2ccccc2-3)cc1OCCOCCC(=O)N[C@H](C(=O)N1C[C@H](O)C[C@H]1C(=O)N[C@@H](C)c1ccc(-c2scnc2C)cc1)C(C)(C)C
Activity (NCI-H226 [4]): inactive
Activity (NCI-H226 [6]): Active

TEAD transcriptional inhibition (active/inactive call) [11]: Active
Compound: COc1cc(-c2cc(-c3ccccc3)nc3c2CC(=O)Nc2ccccc2-3)ccc1OCCOC(C)=O

Activity [13]: inactive
Compound: COc1ccc(-c2cc(-c3ccccc3)nc3c2CC(=O)Nc2ccccc2-3)cc1OCCOCC(=O)N[C@H](C(=O)N1C[C@H](O)C[C@H]1C(=O)N[C@@H](C)c1ccc(-c2scnc2C)cc1)C(C)(C)C
Activity (NCI-H226 [4]): inactive
Activity (NCI-H226 [6]): Active

Compound: COc1cc(-c2cc(-c3ccccc3)nc3c2CC(=O)Nc2ccccc2-3)ccc1OCC(=O)NCCOCCNc1cccc2c1C(=O)N(C1CCC(=O)NC1=O)C2=O (configuration not stated)
Activity (NCI-H226 [4]): inactive

Compound: COc1cc(-c2cc(-c3ccccc3)nc3c2CC(=O)Nc2ccccc2-3)ccc1OCCCCCC(=O)N[C@H](C(=O)N1C[C@H](O)C[C@H]1C(=O)N[C@@H](C)c1ccc(-c2scnc2C)cc1)C(C)(C)C
Activity (NCI-H226 [4]): inactive

Activity [19]: Active
Compound: COc1cc(-c2cc(-c3ccccc3)nc3c2CC(=O)Nc2ccccc2-3)ccc1OCCOCCOCCOCCC(=O)N[C@H](C(=O)N1C[C@H](O)C[C@H]1C(=O)N[C@@H](C)c1ccc(-c2scnc2C)cc1)C(C)(C)C
Activity (NCI-H226 [4]): inactive
